Values quoted from earlier work in patent publication US6532437B1, “Crystalline frap complex” (Cornell Research Foundation, Inc., priority 1996, dated 2003).

Key:
[1] = test system: spontaneous SLE in MRL/lpr-mice
[2] = test system: Chronic GVHD in BDF1 mice; conditions: BDF1 mice given DBA/2 spleen:lymph node cells

Structure (SMILES)	effect on course of disease [1]	activity in CGVHD model [2]
O=P1(N(CCCl)CCCl)NCCCO1 (centres unmarked) [cyclophosphamide]	can prevent and reverse the course of disease	active
Cc1oncc1C(=O)Nc1ccc(C(F)(F)F)cc1 [leflunomide]	can prevent and reverse the course of disease	active
C[C@]12C=CC(=O)C=C1CC[C@@H]1[C@@H]2[C@@H](O)C[C@@]2(C)[C@H]1CC[C@]2(O)C(=O)CO [prednisolone]	–	active
